The source of these data is patent US20230414616A1, “LINE-1 INHIBITORS TO TREAT DISEASE” (Transposon Therapeutics, Inc., priority 2020, published 2023).

This test concerns human LINE-1. Put plainly: Human LINE-1 retrotransposition assay (HeLa cell-based dual-luciferase reporter). The settings on record: HeLa cells, reporter plasmid pYX017, 72 h incubation, Firefly/Renilla. How it is done:
Representative Compounds of the Disclosure were tested for inhibition of retrotransposition activity of human LINE-1 in HeLa cells according to the following procedure.
HeLa cervical cancer cells were cultivated at 37° C. in a humidified 5% CO2 incubator in Dulbecco's Modified Eagle's Medium (DMEM)—high glucose, with 4500 mg/L glucose, L-glutamine, sodium pyruvate and sodium bicarbonate (Sigma), supplemented with 10% of heat inactivated fetal bovine serum (Thermo Fisher).
Assays were performed using reporter plasmid pYX017 as described (Xie, et al., 2011) with several modifications. The reporter assay was performed in 96-well white optical bottom plates. HeLa cells were seeded in wells 24 h prior to transfection and compound treatment so that cells were approximately 30% confluent on the day of transfection. Different cell plating densities were tested and a density of 2×10^3 cells was determined to be optimal.
Compounds were resuspended in DMSO. Serial dilutions (1:3) were prepared in DMSO. Medium containing different concentrations of the compounds were prepared by adding 2 μl of the compound dilution to 1 ml of the culture medium. The final concentration of DMSO in the medium was 0.2%.
FuGENE® HD transfection reagent (Promega, E2311, Lot 382574 and Lot 397842) was used to transfect the plasmids into the cells. […] Different ratios of transfection reagent to DNA were tested and a ratio of 3:1 was determined to be optimal. […] A 72 h incubation time was determined to be optimal.
Luciferase reporter activity was quantified with the Dual-Luciferase® Reporter Assay System (Promega) according to manufacturer's instructions for multiwell plates except that cells were lysed directly on the multiwell plate with 30 μl of the passive lysis buffer (PLB) for 20 min at room temperature, with gentle shaking to ensure complete cell lysis.
Firefly and Renilla luciferase signals were measured using a SpectraMax i3x Multi-Mode Microplate Reader. […] Relative L1 activity is calculated as Firefly/Renilla *1000 or Firefly/Renilla *10,000. […]

The term IC50 denotes the concentration that inhibits the measured activity by half. Read a low IC50 as higher potency. On to `C#C[C@]1(CO)O[C@@H](n2cc(F)c(=O)[nH]c2=O)C[C@@H]1O` [Compound 15], for which, for the setting “HeLa, 72 h”, the IC50 stood at 830 nM. `CC[C@]1(CO)O[C@@H](n2cnc3c(O)nc(N)nc32)C[C@@H]1O` [Compound 27] gave a concentration for half-maximal inhibition (IC50) (HeLa, 72 h) of 2.6 nM. `CC(C)OC(=O)[C@H](C)N[P@](=O)(CO[C@H](C)Cn1cnc2c(N)ncnc21)Oc1ccccc1` [tenofovir alafenamide, reference compound] gave an IC50 of 10 nM.
